According to ChEMBL document CHEMBL4152349, “A Fragment-Derived Clinical Candidate for Antagonism of X-Linked and Cellular Inhibitor of Apoptosis Proteins: 1-(6-[(4-Fluorophenyl)methyl]-5-(hydroxymethyl)-3,3-dimethyl-1 H,2 H,3 H-pyrrolo[3,2- b]pyridin-1-yl)-2-[(2 R,5 …” (J Med Chem, 2018):
One block for each compound: values may come before it.

Legend:
[1] = Chromatographic hydrophobicity index, log D of the compound at pH 7.4 by HPLC method; format: physicochemical; conditions: buffer
[2] = Oral bioavailability in Balb/c mouse at 5 mg/kg by UHPLC and ESI mass spectrometry; format: ADME, organism-based; conditions: in vivo
[3] = Oral bioavailability in Balb/c mouse at 10 mg/kg by UHPLC and ESI mass spectrometry; format: ADME, organism-based; conditions: in vivo
MDA-MB-231 = test: cells; conditions: Homo sapiens, MDA-MB-231, 72 h
in vivo [4] = conditions: cynomolgus monkey, po, 5 mg/kg
hERG (KCNH2) = hERG (KCNH2) (Homo sapiens, UniProt Q12809); test: in vitro; conditions: CHO-K1 cells expressing human ERG
CYP3A4 = CYP3A4 (Homo sapiens, UniProt P08684); test: in vitro; conditions: human CYP3A4 supersomes
[5] = Drug level in tumor of human MDA-MB-231 cells xenografted Balb/c SCID mouse at 20 mg/kg, po administered as single dose measured up to 72 hrs by UPLC analysis; format: ADME, organism-based, Neoplasm; conditions: in vivo
[6] = Drug level in CD-1 mouse hepatocytes treated with 1-(6-(4-fluorobenzyl)-3,3-dimethyl-2,3-dihydro-1H-pyrrolo[3,2-b]pyridin-1-yl)-2-((2R,5R)-5-methyl-2-(((R)-3-methylmorpholino)methyl)piperazin-1-yl)ethanone at 10 uM up to 90 mins by LC-MS analysis; format: ADME, cell-based, Hepatocyte
[7] = Drug level in human hepatocytes treated with 1-(6-(4-fluorobenzyl)-3,3-dimethyl-2,3-dihydro-1H-pyrrolo[3,2-b]pyridin-1-yl)-2-((2R,5R)-5-methyl-2-(((R)-3-methylmorpholino)methyl)piperazin-1-yl)ethanone at 10 uM up to 90 mins by LC-MS analysis; format: ADME, cell-based, Hepatocyte
[8] = Drug level in cynomolgus monkey hepatocytes treated with 1-(6-(4-fluorobenzyl)-3,3-dimethyl-2,3-dihydro-1H-pyrrolo[3,2-b]pyridin-1-yl)-2-((2R,5R)-5-methyl-2-(((R)-3-methylmorpholino)methyl)piperazin-1-yl)ethanone at 10 uM up to 90 mins by LC-MS analysis; format: ADME, cell-based, Macaca fascicularis, Hepatocyte
[9] = Plasma clearance in Sprague-Dawley rat at 1 mg/kg, iv or 5 mg/kg, po by UHPLC and ESI mass spectrometry; format: ADME, organism-based
[10] = Volume of distribution at steady state in Sprague-Dawley rat at 1 mg/kg, iv or 5 mg/kg, po by UHPLC and ESI mass spectrometry; format: ADME, organism-based; conditions: in vivo, read-out: Vdss
[11] = Cmax in Sprague-Dawley rat at 5 mg/kg, po by UHPLC and ESI mass spectrometry; format: ADME, organism-based; set-up: dose 5 mg/kg, route oral; conditions: in vivo
[12] = Cmax in cynomolgus monkey at 5 mg/kg, po by UHPLC and ESI mass spectrometry; format: ADME, organism-based, Macaca fascicularis; set-up: dose 5 mg/kg, route oral; conditions: in vivo
[13] = Oral bioavailability in Sprague-Dawley rat at 5 mg/kg by UHPLC and ESI mass spectrometry; format: ADME, organism-based; conditions: in vivo
Cynomolgus monkey = test: Plasma clearance in cynomolgus monkey at 1 mg/kg, iv or 5 mg/kg, po relative to liver blood flow; format: ADME, organism-based, Macaca fascicularis; conditions: in vivo
[14] = Permeability in human Caco2 cells at 10 uM after 1 hr; format: ADME, cell-based; conditions: Caco-2, read-out: permeability
[15] = Stability in cynomolgus monkey liver microsomes at 10 uM up to 90 mins in presence of NADPH by LC/MS analysis; format: ADME, Macaca fascicularis, microsome
[16] = Drug metabolism in Sprague-Dawley rat hepatocytes assessed as 1-(6-(4-fluorobenzyl)-3,3-dimethyl-2,3-dihydro-1H-pyrrolo[3,2-b]pyridin-1-yl)-2-((2S,5R)-2-((2-hydroxyethylamino)methyl)-5-methylpiperazin-1-yl)ethanone formation at 10 uM up to 90 mins by LC-MS analysis; format: ADME, cell-based, Hepatocyte
[17] = Drug metabolism in Sprague-Dawley rat hepatocytes assessed as 2-((2S,5R)-2-(aminomethyl)-5-methylpiperazin-1-yl)-1-(6-(4-fluorobenzyl)-3,3-dimethyl-2,3-dihydro-1H-pyrrolo[3,2-b]pyridin-1-yl)ethanone formation at 10 uM up to 90 mins by LC-MS analysis; format: ADME, cell-based, Hepatocyte
[18] = Drug metabolism in Sprague-Dawley rat hepatocytes assessed as 2-((R)-1-amino-3-((R)-3-methylmorpholino)propan-2-ylamino)-1-(6-(4-fluorobenzyl)-3,3-dimethyl-2,3-dihydro-1H-pyrrolo[3,2-b]pyridin-1-yl)ethanone formation at 10 uM up to 90 mins by LC-MS analysis; format: ADME, cell-based, Hepatocyte
[19] = Drug metabolism in CD-1 mouse hepatocytes assessed as oxidation metabolite formation at 10 uM up to 90 mins by LC-MS analysis; format: ADME, cell-based, Hepatocyte
[20] = Drug metabolism in human hepatocytes assessed as oxidation metabolite formation at 10 uM up to 90 mins by LC-MS analysis; format: ADME, cell-based, Hepatocyte
[21] = Drug metabolism in Sprague-Dawley rat hepatocytes assessed as oxidation metabolite formation at 10 uM up to 90 mins by LC-MS analysis; format: ADME, cell-based, Hepatocyte
[22] = Drug metabolism in cynomolgus monkey hepatocytes assessed as oxidation metabolite formation at 10 uM up to 90 mins by LC-MS analysis; format: ADME, cell-based, Macaca fascicularis, Hepatocyte
in vivo [23] = conditions: cynomolgus monkey, plasma, iv, 1 mg/kg
in vivo [24] = conditions: cynomolgus monkey, iv, 1 mg/kg

Sequence of CYP3A4 (P08684 whole entry): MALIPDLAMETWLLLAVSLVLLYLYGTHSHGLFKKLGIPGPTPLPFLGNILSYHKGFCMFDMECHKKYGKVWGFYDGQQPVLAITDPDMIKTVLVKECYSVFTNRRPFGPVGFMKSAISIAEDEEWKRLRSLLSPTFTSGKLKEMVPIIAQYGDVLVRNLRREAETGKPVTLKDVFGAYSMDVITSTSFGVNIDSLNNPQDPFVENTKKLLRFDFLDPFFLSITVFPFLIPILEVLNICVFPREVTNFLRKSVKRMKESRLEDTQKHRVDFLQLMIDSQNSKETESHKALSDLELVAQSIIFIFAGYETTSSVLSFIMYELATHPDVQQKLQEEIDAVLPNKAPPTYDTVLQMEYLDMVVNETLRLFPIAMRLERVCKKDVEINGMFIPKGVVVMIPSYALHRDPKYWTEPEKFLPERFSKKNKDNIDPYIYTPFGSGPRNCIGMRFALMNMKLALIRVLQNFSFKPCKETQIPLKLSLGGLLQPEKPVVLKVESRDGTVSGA
Sequence of hERG (KCNH2) (Q12809 whole entry): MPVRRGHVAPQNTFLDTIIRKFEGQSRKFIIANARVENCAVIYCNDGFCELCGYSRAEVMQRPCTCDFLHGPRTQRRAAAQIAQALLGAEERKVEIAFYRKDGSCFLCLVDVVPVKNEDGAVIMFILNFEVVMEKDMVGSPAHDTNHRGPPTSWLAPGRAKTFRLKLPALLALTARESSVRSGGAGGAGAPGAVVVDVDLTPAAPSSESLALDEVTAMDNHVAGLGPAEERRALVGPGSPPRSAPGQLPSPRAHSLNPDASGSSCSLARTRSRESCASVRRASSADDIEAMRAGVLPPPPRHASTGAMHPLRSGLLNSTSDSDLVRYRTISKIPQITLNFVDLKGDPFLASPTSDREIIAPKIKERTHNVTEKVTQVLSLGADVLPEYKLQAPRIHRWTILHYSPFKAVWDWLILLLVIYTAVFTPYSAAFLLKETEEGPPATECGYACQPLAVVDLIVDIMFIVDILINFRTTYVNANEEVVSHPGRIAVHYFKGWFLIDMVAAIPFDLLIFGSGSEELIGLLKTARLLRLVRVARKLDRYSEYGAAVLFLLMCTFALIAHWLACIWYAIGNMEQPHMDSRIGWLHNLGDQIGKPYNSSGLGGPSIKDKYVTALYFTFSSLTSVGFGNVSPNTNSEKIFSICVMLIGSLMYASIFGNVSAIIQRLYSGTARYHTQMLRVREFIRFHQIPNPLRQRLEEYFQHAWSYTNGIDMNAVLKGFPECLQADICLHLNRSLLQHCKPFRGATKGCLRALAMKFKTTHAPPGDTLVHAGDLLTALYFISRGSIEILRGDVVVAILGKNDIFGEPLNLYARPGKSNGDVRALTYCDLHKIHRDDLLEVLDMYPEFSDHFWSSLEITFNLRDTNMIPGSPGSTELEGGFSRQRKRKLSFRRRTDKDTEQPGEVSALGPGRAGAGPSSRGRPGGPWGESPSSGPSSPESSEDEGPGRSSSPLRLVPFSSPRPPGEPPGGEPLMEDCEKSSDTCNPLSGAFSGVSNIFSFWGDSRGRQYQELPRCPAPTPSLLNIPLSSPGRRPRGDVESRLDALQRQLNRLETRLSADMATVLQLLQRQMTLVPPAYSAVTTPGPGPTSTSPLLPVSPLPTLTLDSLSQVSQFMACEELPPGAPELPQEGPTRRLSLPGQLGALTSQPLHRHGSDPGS

chromatographic logD [1]: 2.7
SMILES: C[C@@H]1CN(CC(=O)N2CC(C)(C)c3[nH]c(=O)c(Cc4ccc(F)cc4)cc32)[C@@H](CN2[C@H](C)COC[C@H]2C)CN1

bioavailability [2]: 3% | chromatographic logD [1]: 2.4 | bioavailability [3]: 2% | IC50 (MDA-MB-231): 5.4 nM | bioavailability (in vivo [4]): 18% | half-life at 40 min, 1 µM (CYP3A4): > 70 min
SMILES: C[C@@H]1CN(CC(=O)N2CC(C)(C)c3nnc(Cc4ccc(F)cc4F)cc32)[C@@H](CN2Cc3ccccc3C2=O)CN1
inhibition at 10 min, 30 µM (hERG (KCNH2)): 27%

Drug uptake [5]: Active
SMILES: C[C@@H]1CN(CC(=O)N2CC(C)(C)c3nc(CO)c(Cc4ccc(F)cc4)cc32)[C@@H](CN2CCOC[C@H]2C)CN1.Cl.Cl

Drug uptake [6]: Active | Drug uptake [7]: Active | Drug uptake [8]: Active
SMILES: C[C@@H]1CN(CC(=O)N2CC(C)(C)c3ncc(Cc4ccc(F)cc4)cc32)[C@@H](CNCCO)CN1

IC50 (MDA-MB-231): 7.8 nM
SMILES: CN[C@@H](C)C(=O)N[C@H](C(=O)N1CCC[C@H]1c1nc(C(=O)c2ccc(F)cc2)cs1)C1CCCCC1 [LCL-161]

clearance [9]: 26 mL/min/kg | Vd [10]: 12 L/kg | Cmax [11]: 47 ng/mL | Cmax [12]: 22 ng/mL | bioavailability [13]: 24% | CL (Cynomolgus monkey): < 50% | Papp at 1 h, 10 µM [14]: 1.1 ×10⁻⁶ cm/s | Stability [15]: Stable | Drug metabolism [16]: Metabolite_Notdetected | Drug metabolism [17]: Metabolite_Notdetected | Drug metabolism [18]: Metabolite_Notdetected | Drug metabolism [19]: Metabolite_Detected | Drug metabolism [20]: Metabolite_Detected | Drug metabolism [21]: Metabolite_Notdetected | Drug metabolism [22]: Metabolite_Detected | bioavailability (in vivo [4]): 2% | clearance (in vivo [23]): 17 mL/min/kg | Vd (in vivo [24]): 3.7 L/kg
SMILES: C[C@@H]1CN(CC(=O)N2CC(C)(C)c3ncc(Cc4ccc(F)cc4)cc32)[C@@H](CN2CCOC[C@H]2C)CN1

chromatographic logD [1]: 2.9 | IC50 (MDA-MB-231): 14 nM | half-life at 40 min, 1 µM (CYP3A4): 34 min
SMILES: C[C@@H]1CN(CC(=O)N2CC(C)(C)c3nnc(Cc4ccc(F)cc4F)cc32)[C@@H](CN2Cc3ccc(C#N)cc3C2=O)CN1
inhibition at 10 min, 30 µM (hERG (KCNH2)): 18%

chromatographic logD [1]: 3 | IC50 (MDA-MB-231): 5.2 nM | half-life at 40 min, 1 µM (CYP3A4): 42 min
SMILES: C[C@@H]1CN(CC(=O)N2CC(C)(C)c3nnc(Cc4ccc(F)cc4F)cc32)[C@@H](CN2Cc3cc(C#N)ccc3C2=O)CN1
inhibition at 10 min, 30 µM (hERG (KCNH2)): 19%

chromatographic logD [1]: 2.6 | IC50 (MDA-MB-231): 1.9 nM | half-life at 40 min, 1 µM (CYP3A4): 37 min
SMILES: C[C@@H]1CN(CC(=O)N2CC(C)(C)c3nnc(Cc4ccc(F)cc4F)cc32)[C@@H](CN2Cc3cc(F)ccc3C2=O)CN1
inhibition at 10 min, 30 µM (hERG (KCNH2)): 25%

Drug uptake [6]: Active | Drug uptake [7]: Active | Drug uptake [8]: Active
SMILES: C[C@@H]1COCCN1C[C@@H](CN)NCC(=O)N1CC(C)(C)c2ncc(Cc3ccc(F)cc3)cc21

chromatographic logD [1]: 3.5
SMILES: C[C@@H]1CN(CC(=O)N2CC(C)(C)c3nc(CO)c(Cc4ccc(F)cc4)cc32)[C@@H](CN2[C@H](C)COC[C@H]2C)CN1
